Reference: patent US9993478B2, “1-pyrazolyl-3-(4-((2-anilinopyrimidin-4-yl) oxy) napththalen-1-yl) ureas as P38 MAP knase inhibitors” (Respivert Ltd., priority 2011, dated 2018)

Test system: d-U937 cells
Test: Cell viability: MTT assay
Assay type: cell-based, human
Conditions: 1 μg/mL
Experimental: Differentiated U937 cells were pre-incubated with each test compound (final concentration 1 μg/mL or 10 μg/mL in 200 μL media indicated below) under two protocols: the first for 4 hr in 5% FCS RPMI1640 media and the second in 10% FCS RPMI1640 media for 24 h. The supernatant was replaced with new media (200 μL) and MTT stock solution (10 μL, 5 mg/mL) was added to each well. After incubation for 1 hr the media were removed, DMSO (200 μL) was added to each well and the plates were shaken lightly for 1 hr prior to reading the absorbance at 550 nm. The percentage loss of cell viability was calculated for each well relative to vehicle (0.5% DMSO) treatment. Consequently an apparent increase in cell viability for drug treatment relative to vehicle is tabulated as a negative percentage.

SMILES | MTT Assay Cell viability at time point in d-U937 Cells 4 h | MTT Assay Cell viability at time point in d-U937 Cells 24 h
COc1ccc(-n2nc(C(C)(C)C)cc2NC(=O)Nc2ccc(Oc3ccnc(Nc4ccc(O)cc4)n3)c3ccccc23)cc1 [Example 33, 1-(3-(tert-butyl)-1-(4-methoxyphenyl)-1H-pyrazol-5-yl)-3-(4-((2-((4-hydroxyphenyl)amino)pyrimidin-4-yl)oxy)naphthalen-1-yl)urea] | −ve (−ve and +ve indicate the value is below and above respectively, the no significant effect threshold defined as 30% inhibition at 1 μg/mL at the time point indicated) | −ve (−ve and +ve indicate the value is below and above respectively, the no significant effect threshold defined as 30% inhibition at 1 μg/mL at the time point indicated)
Cc1ccc(-n2nc(C(C)(C)C)cc2NC(=O)Nc2ccc(Oc3ccnc(Nc4cccc(F)c4)n3)c3ccccc23)cc1 [Example 15, 1-(3-(tert-butyl)-1-(p-tolyl)-1H-pyrazol-5-yl)-3-(4-((2-((3-fluorophenyl)amino)pyrimidin-4-yl)oxy)naphthalen-1-yl)urea] | −ve (−ve and +ve indicate the value is below and above respectively, the no significant effect threshold defined as 30% inhibition at 1 μg/mL at the time point indicated) | −ve (−ve and +ve indicate the value is below and above respectively, the no significant effect threshold defined as 30% inhibition at 1 μg/mL at the time point indicated)
COc1ccc(Nc2nccc(Oc3ccc(NC(=O)Nc4cc(C(C)(C)C)nn4-c4ccc(C)cc4)c4ccccc34)n2)cc1OC [Example 27, 1-(3-(tert-butyl)-1-(p-tolyl)-1H-pyrazol-5-yl)-3-(4-((2-((3,4-dimethoxyphenyl)amino)pyrimidin-4-yl)oxy)naphthalen-1-yl)urea] | +ve (−ve and +ve indicate the value is below and above respectively, the no significant effect threshold defined as 30% inhibition at 1 μg/mL at the time point indicated) | −ve (−ve and +ve indicate the value is below and above respectively, the no significant effect threshold defined as 30% inhibition at 1 μg/mL at the time point indicated)
Cc1ccc(-n2nc(C(C)(C)C)cc2NC(=O)Nc2ccc(Oc3ccnc(Nc4ccc(Cl)cc4C)n3)c3ccccc23)cc1 [Example 18, 1-(3-(tert-butyl)-1-(p-tolyl)-1H-pyrazol-5-yl)-3-(4-((2-((4-chloro-2-methylphenyl)amino)pyrimidin-4-yl)oxy)naphthalen-1-yl)urea] | −ve (−ve and +ve indicate the value is below and above respectively, the no significant effect threshold defined as 30% inhibition at 1 μg/mL at the time point indicated) | −ve (−ve and +ve indicate the value is below and above respectively, the no significant effect threshold defined as 30% inhibition at 1 μg/mL at the time point indicated)
Cc1ccc(-n2nc(C(C)(C)C)cc2NC(=O)Nc2ccc(Oc3ccnc(Nc4cccc(C)c4)n3)c3ccccc23)cc1 [Example 12, 1-(3-(tert-butyl)-1-(p-tolyl)-1H-pyrazol-5-yl)-3-(4-((2-(m-tolylamino)pyrimidin-4-yl)oxy)naphthalen-1-yl)urea] | −ve (−ve and +ve indicate the value is below and above respectively, the no significant effect threshold defined as 30% inhibition at 1 μg/mL at the time point indicated) | −ve (−ve and +ve indicate the value is below and above respectively, the no significant effect threshold defined as 30% inhibition at 1 μg/mL at the time point indicated)
Cc1ccc(-n2nc(C(C)(C)C)cc2NC(=O)Nc2ccc(Oc3ccnc(Nc4ccc(O)cc4C)n3)c3ccccc23)cc1 [Example 24, 1-(3-(tert-butyl)-1-(p-tolyl)-1H-pyrazol-5-yl)-3-(4-((2-((4-hydroxy-2-methylphenyl)amino)pyrimidin-4-yl)oxy)naphthalen-1-yl)urea] | −ve (−ve and +ve indicate the value is below and above respectively, the no significant effect threshold defined as 30% inhibition at 1 μg/mL at the time point indicated) | −ve (−ve and +ve indicate the value is below and above respectively, the no significant effect threshold defined as 30% inhibition at 1 μg/mL at the time point indicated)
Cc1ccc(-n2nc(C(C)(C)C)cc2NC(=O)Nc2ccc(Oc3ccnc(Nc4ccc(O)c(F)c4)n3)c3ccccc23)cc1 [Example 29, 1-(3-(tert-butyl)-1-(p-tolyl)-1H-pyrazol-5-yl)-3-(4-((2-((3-fluoro-4-hydroxyphenyl)amino)pyrimidin-4-yl)oxy)naphthalen-1-yl)urea] | +ve (−ve and +ve indicate the value is below and above respectively, the no significant effect threshold defined as 30% inhibition at 1 μg/mL at the time point indicated) | −ve (−ve and +ve indicate the value is below and above respectively, the no significant effect threshold defined as 30% inhibition at 1 μg/mL at the time point indicated)
Cc1ccc(-n2nc(C(C)(C)C)cc2NC(=O)Nc2ccc(Oc3ccnc(Nc4cc(C)ccc4C)n3)c3ccccc23)cc1 [Example 10, 1-(3-(tert-butyl)-1-(p-tolyl)-1H-pyrazol-5-yl)-3-(4-((2-((2,5-dimethylphenyl)amino)pyrimidin-4-yl)oxy)naphthalen-1-yl)urea] | −ve (−ve and +ve indicate the value is below and above respectively, the no significant effect threshold defined as 30% inhibition at 1 μg/mL at the time point indicated) | −ve (−ve and +ve indicate the value is below and above respectively, the no significant effect threshold defined as 30% inhibition at 1 μg/mL at the time point indicated)
Cc1ccc(-n2nc(C(C)(C)C)cc2NC(=O)Nc2ccc(Oc3ccnc(Nc4ccc(F)cc4)n3)c3ccccc23)cc1 [Example 23, 1-(3-(tert-butyl)-1-(p-tolyl)-1H-pyrazol-5-yl)-3-(4-((2-((4-fluorophenyl)amino)pyrimidin-4-yl)oxy)naphthalen-1-yl)urea] | −ve (−ve and +ve indicate the value is below and above respectively, the no significant effect threshold defined as 30% inhibition at 1 μg/mL at the time point indicated) | −ve (−ve and +ve indicate the value is below and above respectively, the no significant effect threshold defined as 30% inhibition at 1 μg/mL at the time point indicated)
COc1ccc(-n2nc(C(C)(C)C)cc2NC(=O)Nc2ccc(Oc3ccnc(Nc4ccccc4)n3)c3ccccc23)cc1 [Example 7, 1-(3-(tert-butyl)-1-(4-methoxyphenyl)-1H-pyrazol-5-yl)-3-(4-((2-(phenylamino)pyrimidin-4-yl)oxy)naphthalen-1-yl)urea] | −ve (−ve and +ve indicate the value is below and above respectively, the no significant effect threshold defined as 30% inhibition at 1 μg/mL at the time point indicated) | −ve (−ve and +ve indicate the value is below and above respectively, the no significant effect threshold defined as 30% inhibition at 1 μg/mL at the time point indicated)
COCC(=O)Nc1cc(Oc2ccc(NC(=O)Nc3cc(C(C)(C)C)nn3-c3ccc(C)cc3)c3ccccc23)ccn1 [Reference Compound, N-(4-(4-(3-(3-tert-butyl-1-p-tolyl-1H-pyrazol-5-yl)ureido)naphthalen-1-yloxy)pyridin-2-yl)-2-methoxyacetamide, reference compound] | −ve (−ve and +ve indicate the value is below and above respectively, the no significant effect threshold defined as 30% inhibition at 1 μg/mL at the time point indicated) | +ve (−ve and +ve indicate the value is below and above respectively, the no significant effect threshold defined as 30% inhibition at 1 μg/mL at the time point indicated)
CCOc1ccc(Nc2nccc(Oc3ccc(NC(=O)Nc4cc(C(C)(C)C)nn4-c4ccc(C)cc4)c4ccccc34)n2)cc1 [Example 22, 1-(3-(tert-butyl)-1-(p-tolyl)-1H-pyrazol-5-yl)-3-(4-((2-((4-ethoxyphenyl)amino)pyrimidin-4-yl)oxy)naphthalen-1-yl)urea] | −ve (−ve and +ve indicate the value is below and above respectively, the no significant effect threshold defined as 30% inhibition at 1 μg/mL at the time point indicated) | −ve (−ve and +ve indicate the value is below and above respectively, the no significant effect threshold defined as 30% inhibition at 1 μg/mL at the time point indicated)
Cc1ccc(-n2nc(C(C)(C)C)cc2NC(=O)Nc2ccc(Oc3ccnc(Nc4ccc(O)cc4Cl)n3)c3ccccc23)cc1 [Example 31, 1-(3-(tert-butyl)-1-(p-tolyl)-1H-pyrazol-5-yl)-3-(4-((2-((2-chloro-4-hydroxyphenyl)amino)pyrimidin-4-yl)oxy)naphthalen-1-yl)urea] | −ve (−ve and +ve indicate the value is below and above respectively, the no significant effect threshold defined as 30% inhibition at 1 μg/mL at the time point indicated) | −ve (−ve and +ve indicate the value is below and above respectively, the no significant effect threshold defined as 30% inhibition at 1 μg/mL at the time point indicated)
Cc1ccc(Nc2nccc(Oc3ccc(NC(=O)Nc4cc(C(C)(C)C)nn4-c4ccc(C)cc4)c4ccccc34)n2)cc1 [Example 11, 1-(3-(tert-butyl)-1-(p-tolyl)-1H-pyrazol-5-yl)-3-(4-((2-(p-tolylamino)pyrimidin-4-yl)oxy)naphthalen-1-yl)urea] | −ve (−ve and +ve indicate the value is below and above respectively, the no significant effect threshold defined as 30% inhibition at 1 μg/mL at the time point indicated) | −ve (−ve and +ve indicate the value is below and above respectively, the no significant effect threshold defined as 30% inhibition at 1 μg/mL at the time point indicated)
